What was measured:
[1] = test system: Wnt activity (Sp5-Luc reporter, TCF/LEF binding sites) in SW480 colon carcinoma cells; assay: Sp5-Luc Wnt reporter gene screening assay in SW480 colon carcinoma cells; assay type: cell-based, human; conditions: Homo sapiens
How it was run: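 SW480 cells stably transduced with a lentiviral luciferase reporter driven by a Sp5 promoter with eight TCF/LEF sites were plated at 10,000/well in 10% FCS medium. Luminescence was normalised to DMSO and IC50 derived by four-parameter fit.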

[2] = test system: primary human fibroblasts derived from IPF patients (LL29 cells); assay: Inhibition of the fibrotic process in TGF-β1-treated primary human fibroblasts from IPF patients (αSMA staining); assay type: cell-based; conditions: Fibroblast, 96 h, TGF-β1 20 ng/mL, 4 days, read-out: Inhibition of fibrosis EC50
Source text: The above synthesized compounds were screened using primary human fibroblasts (derived from IPF patients) treated with TGF-β1 to determine their ability to inhibit the fibrotic process.
Human Fibroblast Celt Culture: Primary human fibroblasts derived from IPF patients (LL29 cells) [^1Xiaoqiu Liu, et.al., “Fibrotic Luna Fibroblasts Show Blunted Inhibition by cAMP Due to Deficient cAMP Response Element-Binding Protein Phosphorylation”, Journal of Pharmacology and Experimental Therapeutics (2005), 315(2), 678-687; ^2Watts, K. L., et.al., “RhoA signaling modulates cyclin D1 expression in human lung fibroblasts; implications for idiopathic pulmonary fibrosis”, Respiratory Research (2006), 7(1), 88] were obtained from American Type Culture Collection (ATCC) and expanded in F12 medium supplemented with 15% Fetal Bovine Serum and Penicillin/Streptomycin.
Compound Screening: Each compound was dissolved in DMSO as a 10 mM stock and used to prepare compound source plates. Serial dilution (1:2, 11-point dose-response curves from 10 μM to […]) and compound transfer was performed using the ECHO 550 (Lahcyte, Sunnyvale, Calif.) into 384-well clear bottom assay plates (Greiner Bio-One) with appropriate DMSO backfill fhr a final DMSO concentration of 0.1%. LL29 cells were plated at 1,500 cells/well in 80 μl/well F12 medium supplemented with 1% Fetal Bovine Serum. One hour after addition of the cells. TGF-β1 (Peprotech; 20 ng/mL) was added to the plates to induce fibrosis (ref. 1 and 2 above), Wells treated with TGF-β1 and containing DMSO were used as controls. Cells were incubated at 37° C. and 5% CO2 for 4 days. Following incubation for 4 days, SYTOX green nucleic acid stain (Life Technologies [Thermo Fisher Scientific]) was added to the wells at a final concentration of 1 uM and incubated at room temperature for 30 min. Cells were then fixed using 4% formaldehyde (Electron Microscopy Sciences), washed 3 times with PBS followed by blocking and penneabilization using 3% Bovine Serum Albumin (BSA; Sigma) and 0.3% Triton X-100 (Sigma) in PBS. Cells were then stained with antibody specific to α-smooth muscle actin (αSMA; Abeam) (ref 1 and 2 above) in 3% Bovine Serum Albumin (BSA; Sigma) and 0.3% Triton X-100 (Sigma) in PBS, and incubated overnight at 4° C. Cells were then washed 3 times with PBS, followed by incubation with Alexa Flor-647 conjugated secondary antibody (Life Technologies [Thermo Fisher Scientific]) and DAPI at room temperature for 1 hour, Cells were then washed 3 times with PBS and plates were sealed for imaging. αSMA staining was imaged by excitation at 630 nm and emission at 665 nm and quantified using the Compartmental Analysis program on the CellInsight CX5 (Thermo Scientific). Dead or apoptotic cells were excluded from analysis based on positive SYTOX green staining. % of total cells positive for αSMA were counted in each well and normalized to the average of 11 wells treated with TGF-β1 on the same plate using Dotmatics' Studies Software. The normalized averages (fold change over untreated) of 3 replicate wells for each compound concentration were used to create dose-responses curves and EC50 values were calculated using non-linear regression curve fit in the Dotmatics' Studies Software. The EC50 values are reported.

SMILES | IC50 [1] [µM] | EC50 [2] [µM]
CCCC(=O)Nc1cncc(-c2cc3c(-c4nc5c(-c6ccoc6)ccnc5[nH]4)n[nH]c3cn2)c1 [Compound 303, N-(5-(3-(7-(Furan-3-yl)-3H-imidazo[4,5-b]pyridin-2-yl)-1H-pyrazolo[3,4-c]pyridin-5-yl)pyridin-3-yl)butyramide] | 0.0788 | 0.02
CCCCC(=O)Nc1cncc(-c2cc3c(-c4nc5c(-c6ccoc6)ccnc5[nH]4)n[nH]c3cn2)c1 [Compound 304, N-(5-(3-(7-(Furan-3-yl)-3H-imidazo[4,5-b]pyridin-2-yl)-1H-pyrazolo [3,4c]pyridin-5-yl)pyridin-3-yl)pentanamide] | 0.0607 | 3.65
c1cc(-c2ccoc2)c2nc(-c3n[nH]c4cnc(-c5cncc(CNCC6CCCC6)c5)cc34)[nH]c2n1 [Compound 310, 1-Cyclopentyl-N-((5-(3-(7-(furan-3-yl)-3H-imidazo[4,5-b]pyridin-2-yl)-1H-pyrazolo[3,4-c]pyridin-5-yl)pyridin-3-yl)methyl)methanamine] | 0.243 | 0.641
CCC(=O)Nc1cncc(-c2cc3c(-c4nc5c(-c6cccs6)ccnc5[nH]4)n[nH]c3cn2)c1 [Compound 313] | 0.0717 | 0.039
CN(C)c1cncc(-c2cc3c(-c4nc5c(-c6cccs6)ccnc5[nH]4)n[nH]c3cn2)c1 [Compound 319] | 0.125 | 0.075
CC(C)(C)C(=O)Nc1cncc(-c2cc3c(-c4nc5c(-c6cccs6)ccnc5[nH]4)n[nH]c3cn2)c1 [Compound 320] | 0.0426 | 0.025
CC(C)Nc1cncc(-c2cc3c(-c4nc5c(-c6cccs6)ccnc5[nH]4)n[nH]c3cn2)c1 [Compound 324, N-Isopropyl-5-(3-(7-(thiophen-2-yl)-3H-imidazo[4,5-b]pyridin-2-yl)-1H-pyrazolo[3,4-c]pyridin-5-yl)pyridin-3-amine] | 0.0585 | ≥ 9.99
CN(C)Cc1cncc(-c2cc3c(-c4nc5c(-c6cccs6)ccnc5[nH]4)n[nH]c3cn2)c1 [Compound 325, N,N-Dimethyl-1-(5-(3-(7-(thiophen-2-yl)-3H-imidazo[4,5-b]pyridin-2-yl)-1H-pyrazolo[3,4-c]pyridin-5-yl)pyridin-3-yl)methanamine] | 0.137 | 0.254
O=C(Nc1cncc(-c2cc3c(-c4nc5c(-c6cccs6)ccnc5[nH]4)n[nH]c3cn2)c1)C1CC1 [Compound 331] | 0.0831 | 0.319

The next compounds have a lower IC50 [1] than those just listed; values first:

IC50 [1] [µM] | SMILES | EC50 [2] [µM]
0.0248 | FC1(F)CCN(Cc2cncc(-c3cc4c(-c5nc6c(-c7cccs7)ccnc6[nH]5)n[nH]c4cn3)c2)C1 [Compound 337] | 0.114
0.027 | CC(C)CC(=O)Nc1cncc(-c2cc3c(-c4nc5c(-c6ccc(F)s6)ccnc5[nH]4)n[nH]c3cn2)c1 [Compound 340, N -(5-(3-(7-(5-Fluorothiophen-2-yl)-3H-imidazo[4,5-b]pyridin-2-yl)-1H-pyrazolo[3,4-c]pyridin-5-yl)pyridin-3-yl)-3-methylbutanamide] | 0.767
0.0226 | Cc1ccc(-c2ccnc3[nH]c(-c4n[nH]c5cnc(-c6cncc(N)c6)cc45)nc23)s1 [Compound 367, 5-(3-(7-(5-Methylthiophen-2-yl)-3H-imidazo[4,5-b]pyridin-2-yl)-1H-pyrazolo[3,4-c]pyridin-5-yl)pyridin-3-amine] | ≤ 0.009
0.0248 | Cc1ccc(-c2ccnc3[nH]c(-c4n[nH]c5cnc(-c6cncc(NC(=O)C(C)(C)C)c6)cc45)nc23)s1 [Compound 372, N-(5-(3-(7-(5-Methylthiophen-2-yl)-3H-imidazo[4,5-b]pyridin-1)-1H-pyrazolo[3,4-c]pyridin-5-yl)pyridin-3-yl)pivalamide] | 0.22
0.0164 | Cc1ccc(-c2ccnc3[nH]c(-c4n[nH]c5cnc(-c6cncc(NC(=O)C(C)C)c6)cc45)nc23)s1 [Compound 373, N-(5-(3-(7-(5-Methylthiophen-2-yl)-3H-imidazo[4,5-b]pyridin-2-yl)-1H-pyrazolo[3,4-c]pyridin-5-yl)pyridin-3-yl)isobutyramide] | ≤ 0.009
